Reference: patent publication US20240270741A1 (Cogent Biosciences, Inc., priority 2023, published 2024)

Target: FGFR2 (Homo sapiens, UniProt P21802)
Experiment: FGFR wild type enzyme assay (HTRF KinEASE-TK), FGFR2
Conditions: Enz FGFR2 (nM), FGFR2 wild type enzyme

Sequence of FGFR2 (P21802 399-821 limits assumed): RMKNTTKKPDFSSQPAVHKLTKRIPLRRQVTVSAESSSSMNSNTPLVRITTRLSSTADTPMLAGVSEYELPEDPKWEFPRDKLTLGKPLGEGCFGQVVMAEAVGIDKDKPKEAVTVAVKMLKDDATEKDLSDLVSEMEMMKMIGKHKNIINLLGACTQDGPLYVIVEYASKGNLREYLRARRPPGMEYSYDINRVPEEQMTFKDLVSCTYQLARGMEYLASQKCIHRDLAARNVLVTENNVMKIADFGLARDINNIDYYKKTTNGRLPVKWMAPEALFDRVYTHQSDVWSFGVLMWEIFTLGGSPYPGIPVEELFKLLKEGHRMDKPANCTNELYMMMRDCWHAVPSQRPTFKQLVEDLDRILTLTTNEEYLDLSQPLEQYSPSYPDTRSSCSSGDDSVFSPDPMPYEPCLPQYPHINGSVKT

| Structure (SMILES) | IC50 |
| --- | --- |
| CC(=O)N[C@H]1CC[C@@H](n2ncc(-c3cc(Sc4ncccc4F)c4c(C#N)cnn4c3)c2C)CC1 [Example 220, N-((1s,4S)-4-(4-(3-cyano-4-((3-fluoropyridin-2-yl)thio)pyrazolo[1,5-a]pyridin-6-yl)-5-methyl-1H-pyrazol-1-yl)cyclohexyl)acetamide] | 5 nM |
| Cc1c(-c2cc(Sc3ncccc3F)c3c(C#N)cnn3c2)cnn1CC1CCNCC1 [Example 222, 4-((3-fluoropyridin-2-yl)thio)-6-(5-methyl-1-(piperidin-4-ylmethyl)-1H-pyrazol-4-yl)pyrazolo[1,5-a]pyridine-3-carbonitrile] | 5 nM |
| Cc1c(-c2cc(Sc3ncccc3F)c3c(C#N)cnn3c2)cnn1[C@@H]1CCNC[C@H]1F [Example 223] | 8 nM |
| CC(=O)N1CCC[C@@H](Cn2ncc(-c3cc(Sc4ccccc4C#N)c4c(C#N)cnn4c3)c2C)C1 [Example 224, (R)-6-(1-((1-acetylpiperidin-3-yl)methyl)-5-methyl-1H-pyrazol-4-yl)-4-((2-cyanophenyl)thio)pyrazolo [1,5-a]pyridine-3-carbonitrile] | 8 nM |
| Cc1c(-c2cc(Sc3ncc(F)cc3F)c3c(C#N)cnn3c2)cnn1[C@H]1CCCN(C(=O)CO)C1 [Example 229, (S)-4-((3,5-difluoropyridin-2-yl)thio)-6-(1-(1-(2-hydroxyacetyl)piperidin-3-yl)-5-methyl-1H-pyrazol-4-yl)pyrazolo[1,5-a]pyridine-3-carbonitrile] | 3 nM |
| Cc1c(-c2cc(Sc3ccccc3C#N)c3c(C#N)cnn3c2)cnn1C[C@@H]1CNCCO1 [Example 232, (S)-4-((2-cyanophenyl)thio)-6-(5-methyl-1-(morpholin-2-ylmethyl)-1H-pyrazol-4-yl)pyrazolo[1,5-a]pyridine-3-carbonitrile] | 3.5 nM |
| Cc1c(-c2cc(Sc3ncccc3F)c3c(C#N)cnn3c2)cnn1C[C@@H]1CNCCO1 [Example 233, (S)-4-((3-fluoropyridin-2-yl)thio)-6-(5-methyl-1-(morpholin-2-ylmethyl)-1H-pyrazol-4-yl)pyrazolo[1,5-a]pyridine-3-carbonitrile] | 6 nM |
| CC(=O)N1CCO[C@H](Cn2ncc(-c3cc(Sc4ncccc4F)c4c(C#N)cnn4c3)c2C)C1 [Example 234, (S)-6-(1-((4-acetylmorpholin-2-yl)methyl)-5-methyl-1H-pyrazol-4-yl)-4-((3-fluoropyridin-2-yl)thio)pyrazolo[1,5-a]pyridine-3-carbonitrile] | 5 nM |
| Cc1c(-c2cc(Sc3ncccc3F)c3c(C#N)cnn3c2)cnn1C[C@H]1[C@@H]2CCC[C@@H]21 [Example 235, 6-(1-(((1R,5S,6r)-bicyclo[3.1.0]hexan-6-yl)methyl)-5-methyl-1H-pyrazol-4-yl)-4-((3-fluoropyridin-2-yl)thio)pyrazolo[1,5-a]pyridine-3-carbonitrile] | 4 nM |
| CC(=O)N1C[C@@H]2[C@H](C1)[C@H]2Cn1ncc(-c2cc(Sc3ncccc3F)c3c(C#N)cnn3c2)c1C [Example 237, 6-(1-(((1R,5S,6r)-3-acetyl-3-azabicyclo[3.1.0]hexan-6-yl)methyl)-5-methyl-1H-pyrazol-4-yl)-4-((3-fluoropyridin-2-yl)thio)pyrazolo[1,5-a]pyridine-3-carbonitrile] | 3 nM |
| CC(=O)N1C[C@@H]2[C@H](C1)[C@@H]2Cn1ncc(-c2cc(Sc3ncccc3F)c3c(C#N)cnn3c2)c1C [Example 238, 6-(1-(((1R,5S,6s)-3-acetyl-3-azabicyclo[3.1.0]hexan-6-yl)methyl)-5-methyl-1H-pyrazol-4-yl)-4-((3-fluoropyridin-2-yl)thio)pyrazolo[1,5-a]pyridine-3-carbonitrile] | 3 nM |
| Cc1c(-c2cc(Sc3ncccc3F)c3c(C#N)cnn3c2)cnn1C[C@H]1CC[C@H](O)CC1 [Example 239, 4-((3-fluoropyridin-2-yl)thio)-6-(1-(((1r,4r)-4-hydroxycyclohexyl)methyl)-5-methyl-1H-pyrazol-4-yl)pyrazolo[1,5-a]pyridine-3-carbonitrile] | 3 nM |
| Cc1c(-c2cc(Sc3ncccc3F)c3c(C#N)cnn3c2)cnn1C1CCN(Cc2ccccn2)CC1 [Example 240, 4-((3-fluoropyridin-2-yl)thio)-6-(5-methyl-1-(1-(pyridin-2-ylmethyl)piperidin-4-yl)-1H-pyrazol-4-yl)pyrazolo[1,5-a]pyridine-3-carbonitrile] | 2 nM |
| Cc1c(-c2cc(Sc3ncccc3F)c3c(C#N)cnn3c2)cnn1[C@H]1CC[C@@H](NCC(F)(F)F)CC1 [Example 244, 4-((3-fluoropyridin-2-yl)thio)-6-(5-methyl-1-((1s,4s)-4-((2,2,2-trifluoroethyl)amino)cyclo-hexyl)-1H-pyrazol-4-yl)pyrazolo[1,5-a]pyridine-3-carbonitrile] | 2.5 nM |
| CC(=O)N1C[C@H]2C[C@H](n3ncc(-c4cc(Sc5ncccc5F)c5c(C#N)cnn5c4)c3C)C[C@H]2C1 [Example 245, 6-(1-((3aR,5s,6aS)-2-acetyloctahydrocylcopenta [c]pyrrol-5-yl)-5-methyl-1H-pyrazol-4-yl)-4-((3-fluoropyridin-2-yl)thio)pyrazolo[1,5-a]pyridine-3-carbonitrile] | 2.5 nM |
| Cc1c(-c2cc(Sc3ncccc3F)c3c(C#N)cnn3c2)cnn1[C@H]1C[C@H](CO)C1 [Example 246, 4-((3-fluoropyridin-2-yl)thio)-6-(1-((1r,3r)-3-(hydroxymethyl)cyclobutyl)-5-methyl-1H-pyrazol-4-yl)pyrazolo[1,5-a]pyridine-3-carbonitrile] | 4 nM |
| CN(C)[C@H]1CC[C@@H](n2cc(-c3cc(Sc4ncccc4F)c4c(C#N)cnn4c3)cn2)CC1 [Example 247, 6-(1-((1s,4s)-4-(dimethylamino)cyclohex-yl)-1H-pyrazol-4-yl)-4-((3-fluoropyridin-2-yl)thio)pyrazolo[1,5-a]pyridine-3-carbonitrile] | 1 nM |
| CC(=O)N(C)[C@H]1CC[C@@H](n2ncc(-c3cc(Sc4ncccc4F)c4c(C#N)cnn4c3)c2C)CC1 [Example 248, N-((1s,4s)-4-(4-(3-cyano-4-((3-fluoropyridin-2-yl)thio)pyrazolo[1,5-a]pyridin-6-yl)-5-methyl-1H-pyrazol-1-yl)cyclohexyl)-N-methylacetamide] | 2 nM |

The next lines start with the values.

| IC50 | Structure (SMILES) |
| --- | --- |
| 1 nM | CC(=O)N1CCC(Cn2ncc(-c3cc(Sc4ccccc4C#N)c4c(C#N)cnn4c3)c2C)CC1 [Example 221, 6-(1-((1-acetylpiperidin-4-yl)methyl)-5-methyl-1H-pyrazol-4-yl)-4-((2-cyanophenyl)thio)pyrazolo [1,5-a]pyridin-3-carbonitrile] |
| 1 nM | CC(=O)N1CC[C@]2(CC[C@@H](n3ncc(-c4cc(Sc5ncccc5F)c5c(C#N)cnn5c4)c3C)CC2)C1 [Example 225, 6-(1-((5r,8r)-2-acetyl-2-azaspiro[4.5]decan-8-yl)-5-methyl-1H-pyrazol-4-y)-4-((3-fluoropyridin-2-yl)thio)pyrazolo[1,5-a]pyridine-3-carbonitrile] |
| 1 nM | Cc1c(-c2cc(Sc3ncccc3F)c3c(C#N)cnn3c2)cnn1[C@@H]1C[C@H]2CNC[C@H]2C1 [Example 226, 4-((3-fluoropyridin-2-yl)thio)-6-(5-methyl-1-((3sR,5s,6aS)-octahydrocyclopenta[c]pyr-rol-5-yl)-1H-pyrazol-4-yl)pyrazolo[1,5-a]pyridine-3-carbonitrile] |
| 1 nM | CC(=O)N1CC[C@]2(CC[C@H](n3ncc(-c4cc(Sc5ncccc5F)c5c(C#N)cnn5c4)c3C)CC2)C1 [Example 227, 6-(1-((5s,8s)-2-acetyl-2-azaspiro[4.5]decan-8-yl)-5-methyl-1H-pyrazol-4-yl)-4-((3-fluoropyridin-2-yl)thio)pyrazolo[1,5-a]pyridine-3-carbonitrile] |
| 1 nM | Cc1c(-c2cc(Sc3ncccc3F)c3c(C#N)cnn3c2)cnn1[C@H]1CC[C@@H](NC(=O)CO)CC1 [Example 228, N-((1s,4s)-4-(4-(3-cyano-4-((3-fluoropyridin-2-yl)thio)pyrazolo[1,5-a]pyridin-6-yl)-5-methyl-1H-pyrazol-1-yl)cyclohexyl)-2-hydroxyacetamide] |
| 1 nM | Cc1c(-c2cc(Sc3ccc(F)cc3C#N)c3c(C#N)cnn3c2)cnn1C1CCN(C)CC1 [Example 230, 4-((2-cyano-4-fluorophenyl)thio)-6-(5-methyl-1-(1-methylpiperidin-4-yl)-1H-pyrazol-4-yl)pyrazolo[1,5-a]pyridine-3-carbonitrile] |
| 1 nM | CC(=O)N(C)[C@H]1CC[C@@H](n2ncc(-c3cc(Sc4ccccc4C#N)c4c(C#N)cnn4c3)c2C)CC1 [Example 231, N-((1s,4s)-4-(4-(3-cyano-4-((2-cyanophenyl)thio)pyrazolo [1,5-a]pyridin-6-yl)-5-methyl-1H-pyrazol-1-yl)cyclohexyl)-N-methylacetamide] |
| 1 nM | Cc1c(-c2cc(Sc3ncccc3F)c3c(C#N)cnn3c2)cnn1C[C@@H]1[C@@H]2CNC[C@@H]21 [Example 236, 6-(1-(((1R,5S,6s)-3-azabicyclo[3.1.0]hexan-6-yl)methyl)-5-methyl-1H-pyrazol-4-yl)-4-((3-fluoropyridin-2-yl)thio)pyrazolo[1,5-a]pyridine-3-carbonitrile] |
| 1 nM | Cc1c(-c2cc(Sc3ncccc3F)c3c(C#N)cnn3c2)cnn1[C@H]1CC[C@@H](N(C)CCO)CC1 [Example 241, 4-((3-fluoropyridin-2-yl)thio)-6-(1-((1s,4s)-4-((2-hydroxyethyl)(methyl)ami-no)cyclohexyl)-5-methyl-1H-pyrazol-4-yl)pyrazolo[1,5-a]pyridine-3-carbonitrile] |
| 1 nM | CCN[C@H]1CC[C@@H](n2ncc(-c3cc(Sc4ncccc4F)c4c(C#N)cnn4c3)c2C)CC1 [Example 242, 6-(1-((1s,4s)-4-(ethylamino)cyclohexyl)-5-methyl-1H-pyrazol-4-yl)-4-((3-fluoropyridin-2-yl)thio)pyrazolo[1,5-a]pyridine-3-carbonitrile] |
| 1 nM | Cc1c(-c2cc(Sc3ncccc3F)c3c(C#N)cnn3c2)cnn1[C@H]1CC[C@@H](NC(C)C)CC1 [Example 243, 4-((3-fluoropyridin-2-yl)thio)-6-(1-((1s,4s)-4-(isopropylamino)cyclohex-yl)-5-methyl-1H-pyrazol-4-yl)pyrazolo[1,5-a]pyridine-3-carbonitrile] |
